{"source": "patent US11026426B2", "about": "“Oxadiazole and phenol derivatives as antibacterial and/or herbicidal agents” (NORTHERN ILLINOIS RESEARCH FOUNDATION, priority 2017, dated 2021)", "key": {"Mycobacterium smegmatis": {"tested_on": "Mycobacterium smegmatis", "experiment": "Antibacterial preliminary screening MS; further: key: 0 represents no inhibition; 3 is comparable to commercial antibiotic control", "type": "cell-based", "settings": "score 0-3"}, "Klebsiella pneumonia": {"tested_on": "Klebsiella pneumonia", "experiment": "Antibacterial preliminary screening KP; further: key: 0 represents no inhibition; 3 is comparable to commercial antibiotic control", "type": "cell-based", "settings": "score 0-3"}, "Corynebacterium xerosis": {"tested_on": "Corynebacterium xerosis", "experiment": "Antibacterial preliminary screening CX; further: key: 0 represents no inhibition; 3 is comparable to commercial antibiotic control", "type": "cell-based", "settings": "score 0-3"}, "[1]": {"tested_on": "IspE of Mycobacterium abscessus", "experiment": "STD-NMR fragment screening MaIspE", "type": "binding", "settings": "Fragments of Life library screening"}, "Pseudomonas aeruginosa": {"tested_on": "Pseudomonas aeruginosa", "experiment": "Antibacterial preliminary screening PA; further: key: 0 represents no inhibition; 3 is comparable to commercial antibiotic control", "type": "cell-based", "settings": "score 0-3"}, "AtIspF": {"target": "AtIspF (Arabidopsis thaliana, UniProt Q9CAK8)", "sequence (Q9CAK8 53-231)": "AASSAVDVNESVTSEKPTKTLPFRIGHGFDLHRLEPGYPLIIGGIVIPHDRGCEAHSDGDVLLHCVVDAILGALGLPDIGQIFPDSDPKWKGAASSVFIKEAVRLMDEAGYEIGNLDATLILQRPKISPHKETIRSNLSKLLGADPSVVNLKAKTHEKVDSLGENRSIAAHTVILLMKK", "experiment": "University of Hamburg photometric enzymatic inhibition assay AtIspF", "type": "biochemical", "settings": "read-out: AtIspF IC50", "outline": "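Coupled photometric assay (CMP kinase/pyruvate kinase/lactate dehydrogenase, NADH consumption) with 2.4 mU AtIspF and 1 mM 4-diphosphocytidyl-2C-methylerythritol 2-phosphate, 2 mM ATP, in 100 mM Tris-HCl pH 8.0, 10 mM MgCl2, 1.1% DMSO. Monitored at 27 °C.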"}, "LeIspE": {"target": "LeIspE (Solanum lycopersicum, UniProt P93841)", "sequence (P93841 89-401)": "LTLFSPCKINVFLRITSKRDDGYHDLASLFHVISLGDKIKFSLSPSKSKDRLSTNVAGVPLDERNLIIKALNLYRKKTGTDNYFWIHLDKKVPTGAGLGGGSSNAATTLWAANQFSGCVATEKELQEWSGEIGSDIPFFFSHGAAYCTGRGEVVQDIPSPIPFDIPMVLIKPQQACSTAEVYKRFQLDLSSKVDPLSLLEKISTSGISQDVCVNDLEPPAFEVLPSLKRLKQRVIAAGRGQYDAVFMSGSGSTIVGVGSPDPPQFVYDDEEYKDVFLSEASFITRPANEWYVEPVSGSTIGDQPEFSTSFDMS", "experiment": "University of Hamburg photometric enzymatic inhibition assay LeIspE", "type": "biochemical, Lycopersicon esculentum", "settings": "read-out: LeIspE IC50", "outline": "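Photometric coupled assay with pyruvate kinase/lactate dehydrogenase following NADH (460 μM). Mix: 100 mM Tris-HCl pH 8.0, 10 mM MgCl2, 1 mM DTT, 2.5 mM phosphoenolpyruvate, 2 mM ATP, 1 mM 4-diphosphocytidyl-2-C-methylerythritol, 1.1% DMSO, 2.4 mU IspE; incubated at 27° C.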"}, "Escherichia coli": {"tested_on": "Escherichia coli", "experiment": "Antibacterial preliminary screening EC", "type": "cell-based", "settings": "score 0-3"}, "[2]": {"target": "T1, Mycobacterium tuberculosis IspD (MtIspD) (Mycobacterium tuberculosis, UniProt P9WKG9)", "T1 sequence (P9WKG9 1-231)": "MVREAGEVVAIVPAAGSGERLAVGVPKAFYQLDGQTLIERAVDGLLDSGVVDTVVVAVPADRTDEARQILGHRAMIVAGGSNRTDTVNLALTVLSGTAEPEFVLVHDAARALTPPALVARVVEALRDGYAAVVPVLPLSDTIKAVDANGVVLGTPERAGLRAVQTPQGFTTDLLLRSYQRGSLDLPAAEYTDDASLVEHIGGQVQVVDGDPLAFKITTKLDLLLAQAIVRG", "experiment": "Thermal shift assay against MtIspD", "type": "binding"}, "[3]": {"target": "Lycopersicon esculentum IspE (LeIspE) (Solanum lycopersicum, UniProt P93841)", "sequence (P93841 89-401)": "as the sequence (P93841 89-401) above", "experiment": "Thermal shift assay against LeIspE", "type": "binding"}, "[4]": {"tested_on": "Burkholderia thailandensis", "type": "cell-based", "settings": "preliminary screening, score 0-3"}, "Bacillus cereus": {"tested_on": "Bacillus cereus", "experiment": "Antibacterial preliminary screening BC", "type": "cell-based", "settings": "score 0-3"}, "AtIspD": {"target": "AtIspD (Arabidopsis thaliana, UniProt P69834)", "sequence (P69834 62-302)": "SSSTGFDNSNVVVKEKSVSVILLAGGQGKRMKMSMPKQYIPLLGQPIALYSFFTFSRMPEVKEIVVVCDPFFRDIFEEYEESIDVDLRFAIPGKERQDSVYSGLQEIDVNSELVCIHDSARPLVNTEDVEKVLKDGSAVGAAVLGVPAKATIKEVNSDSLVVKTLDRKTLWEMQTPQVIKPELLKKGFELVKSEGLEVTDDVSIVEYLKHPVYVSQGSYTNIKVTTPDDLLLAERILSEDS", "experiment": "University of Hamburg photometric enzymatic inhibition assay AtIspD", "type": "biochemical", "settings": "read-out: AtIspD IC50", "outline": "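Coupled photometric assay: 2.4 mU AtIspD with 1 mM (2R,3S)-2,3-dihydroxy-4-oxopentyl phosphate, 2.1 mM CTP, excess IspE (0.4 U), ATP, pyruvate kinase/lactate dehydrogenase and 460 μM NADH. Run in 100 mM Tris-HCl pH 8.0, 10 mM MgCl2, 1 mM DTT, 1.1% DMSO at 27 °C, monitored photometrically.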"}, "Micrococcus luteus": {"tested_on": "Micrococcus luteus", "experiment": "Antibacterial preliminary screening ML", "type": "cell-based", "settings": "score 0-3"}, "[5]": {"target": "Mycobacterium paratuberculosis IspD (MpIspD) (Mycolicibacterium paratuberculosis, UniProt Q743W5)", "sequence (Q743W5 whole entry)": "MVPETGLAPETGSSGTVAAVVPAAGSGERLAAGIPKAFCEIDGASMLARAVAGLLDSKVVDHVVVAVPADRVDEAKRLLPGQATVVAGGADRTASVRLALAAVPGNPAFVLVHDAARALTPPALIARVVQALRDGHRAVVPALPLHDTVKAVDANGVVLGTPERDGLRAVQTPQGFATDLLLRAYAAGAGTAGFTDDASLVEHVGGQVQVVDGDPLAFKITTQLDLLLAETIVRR", "experiment": "Thermal shift assay against MpIspD", "type": "binding"}, "[6]": {"tested_on": "Corynebacterium pseudodiphtheriae", "experiment": "Antibacterial preliminary screening CP;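 further: 0 is no inhibition and 3 matches the commercial antibiotic control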", "type": "cell-based", "settings": "score 0-3"}, "[7]": {"target": "IspD of Mycobacterium paratuburculosis (Mycolicibacterium paratuberculosis, UniProt Q743W5)", "sequence (Q743W5 whole entry, the tested form may be a part)": "as the sequence (Q743W5 whole entry) above", "experiment": "STD-NMR fragment screening MpIspD", "type": "binding", "settings": "Fragments of Life library screening"}, "lettuce seeds": {"tested_on": "lettuce seeds", "experiment": "Lettuce leaf assay", "type": "in vivo", "set-up": "key: 0 (no effect); 5(complete inhibition or bleaching)", "settings": "ranking 0-5", "outline": "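Qualitative assay: compounds in volatile organic solvent applied to filter paper in a petri dish, solvent evaporated, lettuce seeds and 5 mL water added to give test concentrations. Germination, root development and leaf bleaching scored days 3 and 4, ranked 0 (no effect) to 5 (complete inhibition or bleaching).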"}, "[8]": {"target": "Arabidopsis thaliana IspD (Arabidopsis thaliana, UniProt P69834)", "sequence (P69834 62-302)": "as the sequence (P69834 62-302) above", "settings": "read-out: AtIspD IC50, cited from earlier work"}}, "note": "Read-outs that look alike come from different tables or passages of the source."}
{"smiles": "c1ccc2[nH]c(-c3nnco3)cc2c1", "note": "[HGN-207, 2-(1H-indol-2-yl)-1,3,4-oxadiazole]", "values": [{"measurement": "MS score", "setting": "Mycobacterium smegmatis", "result": 0}, {"measurement": "KP score", "setting": "Klebsiella pneumonia", "result": 0}, {"measurement": "CX score", "setting": "Corynebacterium xerosis", "result": 0}, {"measurement": "STD-NMR binding to MaIspE", "setting": "[1]", "result": "bound"}, {"measurement": "PA score", "setting": "Pseudomonas aeruginosa", "result": 0}, {"measurement": "IC50", "setting": "AtIspF", "result": "> 1000", "unit": "µM"}, {"measurement": "IC50", "setting": "LeIspE", "result": "> 1000", "unit": "µM"}, {"measurement": "EC score", "setting": "Escherichia coli", "result": 0}, {"measurement": "MtIspD melting point change", "setting": "[2]", "result": 1.5, "unit": "°C"}, {"measurement": "MtIspD melting temp", "setting": "[2]", "result": 49.5, "unit": "°C"}, {"measurement": "melting point", "result": "205 to 207", "unit": "°C"}, {"measurement": "LeIspE melting point change", "setting": "[3]", "result": "−1.25", "unit": "°C"}, {"measurement": "LeIspE melting temp", "setting": "[3]", "result": 48.25, "unit": "°C"}, {"measurement": "BT score", "setting": "[4]", "result": 0}, {"measurement": "BC score", "setting": "Bacillus cereus", "result": 0}, {"measurement": "IC50", "setting": "AtIspD", "result": "> 1000", "unit": "µM"}, {"measurement": "ML score", "setting": "Micrococcus luteus", "result": 0}, {"measurement": "MpIspD thermal shift (positive shift)", "setting": "[5]", "result": 0.8, "unit": "°C"}, {"measurement": "CP score", "setting": "[6]", "result": 0}, {"measurement": "STD-NMR binding to MpIspD", "setting": "[7]", "result": "bound"}, {"measurement": "Bleaching", "setting": "lettuce seeds; 0.5 mM", "result": 2}, {"measurement": "Germination", "setting": "lettuce seeds; 0.5 mM", "result": 2}, {"measurement": "Root Dev.", "setting": "lettuce seeds; 0.5 mM", "result": 0}, {"measurement": "Bleaching", "setting": "lettuce seeds; 1.0 mM", "result": 3}, {"measurement": "Germination", "setting": "lettuce seeds; 1.0 mM", "result": 2}, {"measurement": "Root Dev.", "setting": "lettuce seeds; 1.0 mM", "result": 0}]}
{"smiles": "Oc1c(Br)cc(Br)cc1-c1[nH]c(Br)c(Br)c1Br", "note": "[pentabromopseudilin]", "values": [{"measurement": "IC50", "setting": "[8]; with 40 μM Cd2+ added", "result": "1.4 ± 0.2", "unit": "µM"}, {"measurement": "IC50", "setting": "[8]; without a metal added", "result": "13 ± 2", "unit": "µM"}]}
